# Reference: ChEMBL document CHEMBL1201862, “PubChem BioAssay data set” (2004)
# Calls of active or inactive are those of the source.
# Legend:
# Large T antigen = Large T antigen (Simian virus 40, UniProt P03070); type: functional, Betapolyomavirus macacae;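 note: Confirmatory-stage PubChem screen for compounds that inhibit SV40 T antigen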
# Estrogen receptor beta = Estrogen receptor beta (Homo sapiens, UniProt Q92731);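 note: recombinant ER-beta bound to coactivator SRC1 peptide in presence of estradiol agonist; inhibitors block coactivator peptide binding and lower the FRET signal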
# fMet-Leu-Phe receptor = biological target: T1, fMet-Leu-Phe receptor (Homo sapiens, UniProt P21462); test: FPR ligands, dose response (AID 519); type: functional
# T1 sequence (P21462 whole entry): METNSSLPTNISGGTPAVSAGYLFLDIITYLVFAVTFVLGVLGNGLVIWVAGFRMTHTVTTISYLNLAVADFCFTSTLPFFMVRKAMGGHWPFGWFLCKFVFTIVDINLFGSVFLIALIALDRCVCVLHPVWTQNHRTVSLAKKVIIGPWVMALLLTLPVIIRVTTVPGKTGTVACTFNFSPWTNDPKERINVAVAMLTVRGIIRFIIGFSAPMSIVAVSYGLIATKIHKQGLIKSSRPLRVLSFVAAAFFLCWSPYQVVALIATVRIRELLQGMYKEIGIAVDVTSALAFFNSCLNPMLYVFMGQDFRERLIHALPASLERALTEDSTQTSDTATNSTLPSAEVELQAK
# [1] = A Cell Based Secondary Assay To Explore Cytotoxicity of Compounds that Sensitize Mycobacterium Tuberculosis to Beta-Lactam Antibiotics.; type: functional
# [2] = biological target: FAD-linked sulfhydryl oxidase ALR (Homo sapiens, UniProt P55789); test: inhibitors of human ALR sulfhydryl oxidase, dose response, biochemical, H2O2 detection, luminescence, cherry-pick (AID 493248)
# [3] = biological target: T2, Rac GTPase-activating protein 1 (Homo sapiens, UniProt Q9H0H5); test: MgcRacGAP GTPase-activating activity inhibitors, confirmation, biochemical, ADP Hunter fluorescence, primary and confirmatory (AID 624330); type: functional
# T2 sequence (Q9H0H5 whole entry): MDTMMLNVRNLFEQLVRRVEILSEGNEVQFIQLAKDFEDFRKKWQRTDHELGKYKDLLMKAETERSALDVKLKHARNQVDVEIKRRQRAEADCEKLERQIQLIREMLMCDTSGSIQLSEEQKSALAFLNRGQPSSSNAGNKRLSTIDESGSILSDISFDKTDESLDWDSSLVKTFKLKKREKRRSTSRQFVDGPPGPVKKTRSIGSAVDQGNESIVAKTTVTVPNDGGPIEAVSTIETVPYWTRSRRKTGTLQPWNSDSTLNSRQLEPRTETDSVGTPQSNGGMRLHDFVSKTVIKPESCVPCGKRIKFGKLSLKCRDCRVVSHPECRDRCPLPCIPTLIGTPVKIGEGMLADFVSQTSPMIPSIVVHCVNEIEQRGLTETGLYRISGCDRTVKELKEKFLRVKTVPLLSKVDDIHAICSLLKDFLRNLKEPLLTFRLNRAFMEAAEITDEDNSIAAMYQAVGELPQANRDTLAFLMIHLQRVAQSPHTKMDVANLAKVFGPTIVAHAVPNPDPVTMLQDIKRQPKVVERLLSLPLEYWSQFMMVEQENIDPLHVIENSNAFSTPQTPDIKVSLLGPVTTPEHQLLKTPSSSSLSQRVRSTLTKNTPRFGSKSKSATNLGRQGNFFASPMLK
# Paired box protein Pax-8 = Paired box protein Pax-8 (Homo sapiens, UniProt Q06710); test: inhibitors of PAX8-driven TPO luciferase reporter, dose response, RMG-I cells, cherry-pick (AID 687027); type: functional, cell-based;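 note: luciferase reporter driven by Pax8 target thyroperoxidase promoter measured by SteadyGlo luminescence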
# [4] = cytotoxicity in OVCAR8 ovarian cancer cells, dose response, PAX8 project, cell-based, plate reader, dry powder samples (AID 743197); type: functional; conditions: OVCAR-8
# [5] = biological target: Eukaryotic translation initiation factor 4E (Mus musculus, UniProt P63073); test: eIF4E–eIF4G protein interaction inhibitors, dose response, biochemical, TR-FRET (AID 855); type: functional;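 note: potency for disrupting eIF4E binding to eIF4GI seen as loss of FRET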
# [6] = biological target: T3, Replicative DNA helicase DnaB (Mycobacterium tuberculosis, UniProt P9WMR3); test: DnaB intein splicing inhibitors, dose response, biochemical, cell-free fluorescence (AID 449749); type: functional
# T3 sequence (P9WMR3 whole entry): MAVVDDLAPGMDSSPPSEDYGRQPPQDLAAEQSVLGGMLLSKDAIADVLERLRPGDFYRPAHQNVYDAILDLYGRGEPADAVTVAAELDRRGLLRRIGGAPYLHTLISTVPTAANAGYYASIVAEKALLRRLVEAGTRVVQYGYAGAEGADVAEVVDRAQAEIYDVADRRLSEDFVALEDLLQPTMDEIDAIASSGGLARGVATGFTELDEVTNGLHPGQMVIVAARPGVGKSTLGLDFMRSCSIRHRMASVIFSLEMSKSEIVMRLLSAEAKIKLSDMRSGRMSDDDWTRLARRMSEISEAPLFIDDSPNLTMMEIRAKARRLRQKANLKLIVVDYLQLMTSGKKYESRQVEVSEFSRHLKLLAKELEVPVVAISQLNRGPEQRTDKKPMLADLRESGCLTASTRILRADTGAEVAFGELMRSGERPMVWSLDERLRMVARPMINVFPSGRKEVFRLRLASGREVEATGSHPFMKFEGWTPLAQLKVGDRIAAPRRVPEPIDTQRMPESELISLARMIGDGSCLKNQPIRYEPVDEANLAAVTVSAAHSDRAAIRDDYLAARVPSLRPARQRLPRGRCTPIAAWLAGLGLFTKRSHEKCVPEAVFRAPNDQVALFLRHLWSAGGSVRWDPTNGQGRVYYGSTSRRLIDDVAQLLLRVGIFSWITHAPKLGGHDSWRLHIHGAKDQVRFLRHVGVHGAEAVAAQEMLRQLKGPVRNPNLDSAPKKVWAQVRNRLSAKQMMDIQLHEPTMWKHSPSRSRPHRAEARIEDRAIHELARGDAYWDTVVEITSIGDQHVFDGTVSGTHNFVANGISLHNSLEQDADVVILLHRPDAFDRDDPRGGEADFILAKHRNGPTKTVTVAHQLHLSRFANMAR
# Protein RecA = biological target: T4, Protein RecA (Mycobacterium tuberculosis, UniProt P9WHJ3); test: Fluorescence Cell-Free Homogeneous Dose Retest to Identify Inhibitors of RecA-Intein Splicing Activity. [Related pubchem assays (depositor defined):AID2097, AID2223, AID489010, AID492950]; type: functional
# T4 sequence (P9WHJ3 whole entry): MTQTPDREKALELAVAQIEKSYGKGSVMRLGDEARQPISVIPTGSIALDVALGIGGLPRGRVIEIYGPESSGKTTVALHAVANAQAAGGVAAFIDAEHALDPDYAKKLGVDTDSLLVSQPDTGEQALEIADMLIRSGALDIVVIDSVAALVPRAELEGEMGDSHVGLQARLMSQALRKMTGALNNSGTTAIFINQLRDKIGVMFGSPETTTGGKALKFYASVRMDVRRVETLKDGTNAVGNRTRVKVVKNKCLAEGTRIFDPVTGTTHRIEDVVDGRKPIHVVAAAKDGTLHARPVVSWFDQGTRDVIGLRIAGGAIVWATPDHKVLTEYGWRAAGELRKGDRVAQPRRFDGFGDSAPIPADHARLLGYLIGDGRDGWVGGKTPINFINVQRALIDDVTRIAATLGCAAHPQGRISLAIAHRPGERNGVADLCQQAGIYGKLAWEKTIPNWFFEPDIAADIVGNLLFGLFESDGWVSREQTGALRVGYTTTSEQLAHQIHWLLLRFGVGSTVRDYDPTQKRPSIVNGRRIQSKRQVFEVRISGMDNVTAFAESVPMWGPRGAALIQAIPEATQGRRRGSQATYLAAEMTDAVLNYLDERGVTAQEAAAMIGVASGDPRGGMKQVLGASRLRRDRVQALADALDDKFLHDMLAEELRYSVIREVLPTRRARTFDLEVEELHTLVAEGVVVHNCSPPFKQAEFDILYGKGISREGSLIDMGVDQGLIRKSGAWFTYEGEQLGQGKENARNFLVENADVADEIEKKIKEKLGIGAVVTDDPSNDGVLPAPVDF
# Cytochrome P450 2D6 = Cytochrome P450 2D6 (Homo sapiens, UniProt P10635);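 note: CYP2D6 member of a cytochrome P450 panel assay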
# Cytochrome P450 1A2 = biological target: T5, Cytochrome P450 1A2 (Homo sapiens, UniProt P05177);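 note: PubChem cytochrome P450 panel assay, CYP1A2 panel member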
# T5 sequence (P05177 whole entry): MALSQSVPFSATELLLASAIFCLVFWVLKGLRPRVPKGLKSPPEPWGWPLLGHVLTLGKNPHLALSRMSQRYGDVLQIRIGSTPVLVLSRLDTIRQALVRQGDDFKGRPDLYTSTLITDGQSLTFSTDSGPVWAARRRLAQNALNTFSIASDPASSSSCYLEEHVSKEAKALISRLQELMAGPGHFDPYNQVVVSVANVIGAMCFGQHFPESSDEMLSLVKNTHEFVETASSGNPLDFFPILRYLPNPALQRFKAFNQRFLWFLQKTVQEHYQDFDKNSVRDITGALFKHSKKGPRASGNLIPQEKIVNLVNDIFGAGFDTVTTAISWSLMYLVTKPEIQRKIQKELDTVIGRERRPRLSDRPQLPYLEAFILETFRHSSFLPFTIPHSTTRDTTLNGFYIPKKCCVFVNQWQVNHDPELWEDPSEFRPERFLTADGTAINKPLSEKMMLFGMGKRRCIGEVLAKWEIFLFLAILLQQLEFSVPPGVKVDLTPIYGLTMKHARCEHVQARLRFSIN
# [7] = cytotoxicity in HPDE-C7 cells, cell-based, fluorescence, HTS (AID 430); type: functional; conditions: Homo sapiens
# [8] = cytotoxicity in KRAS-transformed pancreatic duct cells, primary screen, cell-based, fluorescence, HTS (AID 431); type: functional; conditions: Homo sapiens;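 note: cell line used: HPDE-C7K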
# Escherichia coli = test: microbe, parasite or virus in culture
# Cytochrome P450 2C9 = Cytochrome P450 2C9 (Homo sapiens, UniProt P11712)
# Cytochrome P450 2C19 = Cytochrome P450 2C19 (Homo sapiens, UniProt P33261); test: Cytochrome panel assay with activity outcomes. Panel member name: p450-cyp2c19 Compounds with AC50 equal or less than 10 uM are considered active; type: functional; conditions: read-out: AC50
# cells [9] = type: functional, cell-based
# cells [10] = type: functional, cell-based; remark: listed apart in the source
# [11] = intracellular Trypanosoma cruzi inhibitors in host cells – cell-based, plate reader, cherry-pick samples, set 3, dose response (AID 651818); type: functional;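 note: compounds incubated with infected cells for about four days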
# Sequence of Large T antigen (P03070 whole entry): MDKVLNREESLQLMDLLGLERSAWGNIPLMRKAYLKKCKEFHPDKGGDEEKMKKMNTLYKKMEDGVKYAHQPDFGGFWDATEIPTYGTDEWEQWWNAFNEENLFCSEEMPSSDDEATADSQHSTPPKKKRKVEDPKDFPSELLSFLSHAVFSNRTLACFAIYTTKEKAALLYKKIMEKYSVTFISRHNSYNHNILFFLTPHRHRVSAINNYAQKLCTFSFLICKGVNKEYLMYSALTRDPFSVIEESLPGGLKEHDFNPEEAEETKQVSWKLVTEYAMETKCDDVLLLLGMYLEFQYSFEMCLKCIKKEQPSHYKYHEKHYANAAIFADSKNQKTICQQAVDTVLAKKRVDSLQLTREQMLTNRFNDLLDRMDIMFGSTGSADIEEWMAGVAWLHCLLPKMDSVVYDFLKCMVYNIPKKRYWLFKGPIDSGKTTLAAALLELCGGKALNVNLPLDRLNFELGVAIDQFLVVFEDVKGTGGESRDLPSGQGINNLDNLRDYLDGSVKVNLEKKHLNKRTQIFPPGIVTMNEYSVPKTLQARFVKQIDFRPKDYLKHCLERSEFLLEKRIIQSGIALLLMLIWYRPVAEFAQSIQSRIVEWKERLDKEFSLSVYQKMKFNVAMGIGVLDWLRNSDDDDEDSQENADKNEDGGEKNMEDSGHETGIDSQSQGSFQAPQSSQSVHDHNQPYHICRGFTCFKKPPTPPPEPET
# Sequence of Paired box protein Pax-8 (Q06710 whole entry): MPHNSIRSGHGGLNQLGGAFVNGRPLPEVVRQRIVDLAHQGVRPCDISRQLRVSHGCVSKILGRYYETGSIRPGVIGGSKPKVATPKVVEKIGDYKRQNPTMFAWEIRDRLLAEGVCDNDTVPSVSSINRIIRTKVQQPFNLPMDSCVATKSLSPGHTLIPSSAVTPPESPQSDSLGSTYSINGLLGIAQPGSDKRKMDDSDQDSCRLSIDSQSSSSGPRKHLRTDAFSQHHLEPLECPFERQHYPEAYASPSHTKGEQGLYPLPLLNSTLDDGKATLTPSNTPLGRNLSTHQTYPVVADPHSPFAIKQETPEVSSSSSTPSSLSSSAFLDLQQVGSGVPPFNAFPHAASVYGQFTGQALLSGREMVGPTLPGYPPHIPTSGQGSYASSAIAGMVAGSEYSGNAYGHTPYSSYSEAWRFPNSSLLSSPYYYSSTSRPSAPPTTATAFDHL
# Sequence of Estrogen receptor beta (Q92731 whole entry): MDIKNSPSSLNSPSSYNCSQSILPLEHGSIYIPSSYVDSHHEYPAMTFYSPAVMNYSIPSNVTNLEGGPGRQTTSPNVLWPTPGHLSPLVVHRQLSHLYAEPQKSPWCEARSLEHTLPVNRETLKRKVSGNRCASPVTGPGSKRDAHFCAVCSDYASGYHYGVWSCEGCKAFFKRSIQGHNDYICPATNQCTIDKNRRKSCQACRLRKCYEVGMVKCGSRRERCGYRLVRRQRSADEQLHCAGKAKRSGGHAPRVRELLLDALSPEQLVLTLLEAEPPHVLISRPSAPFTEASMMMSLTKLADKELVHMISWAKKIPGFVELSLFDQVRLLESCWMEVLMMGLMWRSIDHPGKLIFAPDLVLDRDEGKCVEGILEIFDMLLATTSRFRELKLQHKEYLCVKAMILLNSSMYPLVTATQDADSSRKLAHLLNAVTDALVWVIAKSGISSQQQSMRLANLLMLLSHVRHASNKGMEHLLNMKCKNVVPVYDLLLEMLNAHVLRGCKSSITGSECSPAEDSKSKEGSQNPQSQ
# Sequence of Eukaryotic translation initiation factor 4E (P63073 whole entry): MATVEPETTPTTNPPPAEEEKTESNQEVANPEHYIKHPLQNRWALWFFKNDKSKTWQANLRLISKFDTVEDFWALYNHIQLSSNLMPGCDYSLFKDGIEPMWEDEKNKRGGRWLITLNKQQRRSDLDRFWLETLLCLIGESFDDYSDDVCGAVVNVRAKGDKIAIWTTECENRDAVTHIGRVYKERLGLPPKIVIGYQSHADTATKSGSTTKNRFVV
# Sequence of Cytochrome P450 2D6 (P10635 whole entry): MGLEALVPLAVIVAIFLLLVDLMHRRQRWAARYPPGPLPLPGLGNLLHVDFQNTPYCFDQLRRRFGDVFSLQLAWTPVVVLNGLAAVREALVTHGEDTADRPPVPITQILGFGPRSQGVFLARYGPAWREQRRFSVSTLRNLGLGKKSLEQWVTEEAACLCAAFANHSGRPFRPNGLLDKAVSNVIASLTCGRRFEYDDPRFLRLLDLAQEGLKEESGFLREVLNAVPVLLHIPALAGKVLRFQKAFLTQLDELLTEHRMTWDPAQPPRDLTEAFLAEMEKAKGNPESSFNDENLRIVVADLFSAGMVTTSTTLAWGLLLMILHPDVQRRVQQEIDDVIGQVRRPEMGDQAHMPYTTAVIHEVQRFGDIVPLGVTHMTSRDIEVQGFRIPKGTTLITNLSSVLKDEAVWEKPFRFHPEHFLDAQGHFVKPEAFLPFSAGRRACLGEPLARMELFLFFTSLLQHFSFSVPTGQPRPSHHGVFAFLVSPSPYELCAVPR
# Sequence of Cytochrome P450 2C19 (P33261 whole entry): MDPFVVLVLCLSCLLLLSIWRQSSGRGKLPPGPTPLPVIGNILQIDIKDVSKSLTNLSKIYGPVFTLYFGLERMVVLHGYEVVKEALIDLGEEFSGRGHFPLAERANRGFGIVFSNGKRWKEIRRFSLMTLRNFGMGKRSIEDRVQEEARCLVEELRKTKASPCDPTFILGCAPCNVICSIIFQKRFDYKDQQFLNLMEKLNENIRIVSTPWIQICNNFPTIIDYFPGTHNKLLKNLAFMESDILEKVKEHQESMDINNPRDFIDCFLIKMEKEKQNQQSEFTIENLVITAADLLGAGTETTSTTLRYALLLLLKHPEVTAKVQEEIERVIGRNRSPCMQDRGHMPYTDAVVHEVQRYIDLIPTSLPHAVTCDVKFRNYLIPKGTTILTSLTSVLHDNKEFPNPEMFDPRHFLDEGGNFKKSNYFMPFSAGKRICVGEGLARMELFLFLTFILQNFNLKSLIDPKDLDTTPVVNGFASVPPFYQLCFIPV
# Sequence of Cytochrome P450 2C9 (P11712 whole entry): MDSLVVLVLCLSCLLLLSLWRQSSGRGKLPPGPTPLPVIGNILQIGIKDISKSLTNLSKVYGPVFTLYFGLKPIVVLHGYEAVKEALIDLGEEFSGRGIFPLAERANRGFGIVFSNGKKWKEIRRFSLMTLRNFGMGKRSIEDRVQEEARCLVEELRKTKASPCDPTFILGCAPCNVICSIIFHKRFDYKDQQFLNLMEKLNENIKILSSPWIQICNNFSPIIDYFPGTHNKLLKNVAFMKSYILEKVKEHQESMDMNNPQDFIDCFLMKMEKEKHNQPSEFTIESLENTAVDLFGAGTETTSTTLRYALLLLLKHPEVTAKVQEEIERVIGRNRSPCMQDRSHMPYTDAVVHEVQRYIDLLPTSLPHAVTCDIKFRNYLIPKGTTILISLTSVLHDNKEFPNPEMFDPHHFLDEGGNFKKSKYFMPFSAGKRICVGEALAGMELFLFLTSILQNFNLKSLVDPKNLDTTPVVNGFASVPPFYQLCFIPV
# Sequence of FAD-linked sulfhydryl oxidase ALR (P55789 whole entry): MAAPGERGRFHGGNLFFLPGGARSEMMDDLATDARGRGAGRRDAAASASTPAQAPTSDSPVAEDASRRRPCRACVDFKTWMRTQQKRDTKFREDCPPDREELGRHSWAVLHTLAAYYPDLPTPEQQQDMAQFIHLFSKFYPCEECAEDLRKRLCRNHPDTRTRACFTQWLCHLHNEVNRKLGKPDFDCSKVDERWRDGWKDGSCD
smiles,measurement,setting,value
CC(C)c1ccc(S(=O)(=O)N2CCN(CCC(=O)Nc3ccc(N(C)C)cc3)CC2)cc1,IC50,Large T antigen,15.1 µM (active)
O=C1CC(c2ccc(S(=O)(=O)NCCOc3ccccc3)cc2)CN1 (stereo not given),IC50,Estrogen receptor beta,> 50 µM (not active)
COc1ccc(OC)c(C(=O)c2nc3c(n2O)CCCCC3)c1,Ki,fMet-Leu-Phe receptor,49.6 µM (inactive)
Clc1ccc(-c2csc3ncnc(N4CCc5ccccc5C4)c23)cc1,CC50,[1],> 40 µM (active)
Cc1cc(=O)oc2c(N)c(O)ccc12,IC50,Large T antigen,0.77 µM (active)
same,AC50,[2],1.32 µM (active)
O=C(Cn1c(=O)oc2ccccc21)N1CCN(c2ccccc2)CC1,Ki,fMet-Leu-Phe receptor,> 66.7 µM (inactive)
COc1cc(/C=N/NC(=S)NCCN2CCOCC2)ccc1O,IC50,[3],19.9 µM (active)
same,IC50,Large T antigen,6.95 µM (active)
O=S(=O)(c1ccccc1)N1CCCCN2[C@H](CO)[C@H](c3ccc(-c4ccccc4F)cc3)[C@H]2C1,AC50,Paired box protein Pax-8,33.7 µM (active)
same,AC50,[4],> 70 µM (inactive)
CCOc1ccc2nc(N3CCC(C(=O)NC4CCCCC4)CC3)sc2c1,CC50,[1],> 40 µM (active)
O=C1CCCC(O)=C1C(C#Cc1ccccc1)C1=C(O)CCCC1=O,IC50,[5],> 64 µM (inactive)
same,AC50,[6],6.78 µM (active)
same,EC50,Protein RecA,> 380 µM (inconclusive)
same,Ki,fMet-Leu-Phe receptor,> 66.7 µM (inactive)
CCN(CC)C1=CC(=O)OC12CCCCC2,IC50,Estrogen receptor beta,> 50 µM (not active)
COc1ccccc1CNC(=O)c1cc2c(C)nn(Cc3ccc(F)cc3)c2s1,AC50,Cytochrome P450 2D6,22.4 µM (inconclusive)
same,AC50,Cytochrome P450 1A2,31.6 µM (inconclusive)
same,CC50,[1],> 40 µM (active)
Cc1cccn2c(=O)c3cc(C(=O)N4CCC5(CC4)OCCO5)n(C)c3nc12,EC50,[7],4.7 µM (active)
same,EC50,[8],8.42 µM (active)
CCC(C)N1CCC2(CC1)N=c1c3c(O)c4c(O)c(C)c5c(c4c1=N2)C(=O)[C@@](C)(OC=C[C@H](OC)[C@@H](C)[C@@H](OC(C)=O)[C@H](C)[C@H](O)[C@H](C)[C@@H](O)[C@@H](C)C=CC=C(C)C(=O)N3)O5 (stereo not given in full),AC50,Escherichia coli,7.88 µM (active)
Cc1ccc(/C=N\NC(=O)COc2ccc(C)cc2[N+](=O)[O-])cc1,IC50,Large T antigen,> 100 µM (active)
O=C1C(C23CC4CC(CC(C4)C2)C3)C(=O)N(c2ccccc2)N1c1ccccc1,Ki,fMet-Leu-Phe receptor,11.5 µM (active)
CC(C)(C)c1nnc(NC(=O)NS(=O)(=O)c2ccccc2)s1,AC50,Escherichia coli,61.5 µM (active)
same,AC50,Cytochrome P450 2C9,10 µM (inconclusive)
same,AC50,Cytochrome P450 2C19,39.8 µM (inconclusive)
CCOC(=O)c1sc(N(Cc2ccccc2)C(=O)COC(=O)c2ccc(O)cc2)nc1C,EC50,cells [9],> 350 µM (not active)
same,EC50,cells [10],175 µM (active)
O=C(Nc1ccc(CN2CCOCC2)cc1)c1ccc(-c2ccc(Br)cc2)o1,EC50,[7],13.9 µM (active)
same,EC50,[8],9.91 µM (active)
O=C(C1=C(O)C(=O)N(CCN2CCOCC2)C1c1ccccc1)c1cccs1 (stereo not given),Ki,fMet-Leu-Phe receptor,> 66.7 µM (inactive)
Cc1ccc(Cn2c(C(CO)Nc3nc(-c4ccc(Cl)c([N+](=O)[O-])c4)cs3)nc3ccccc32)cc1 (stereo not given),CC50,[1],37.3 µM (active)
COc1ccccc1NC(=O)c1cc2ccccc2o/c1=N\O,EC50,[7],> 20 µM (not active)
same,EC50,[8],> 20 µM (not active)
COc1ccc(CN(C)C[C@@H]2OCCCC[C@@H](C)Oc3ccc(NC(=O)Nc4ccc(C(F)(F)F)cc4)cc3C(=O)N([C@@H](C)CO)C[C@H]2C)cc1,AC50,Paired box protein Pax-8,8.11 µM (active)
same,AC50,[4],> 70 µM (inactive)
C[C@@H]1CN([C@H](C)CO)C(=O)c2cc(NC(=O)Nc3cccc4ccccc34)ccc2O[C@@H]1CN(C)Cc1ccc(C(F)(F)F)cc1,AC50,[11],2.44 µM (active)
COc1ccccc1/C=C/C(=O)NCC(=O)N/N=C/c1cc(Br)ccc1OC,CC50,[1],27.5 µM (active)
